The structures appear in SMILES notation. pEC50, pIC50, pKd: −log10 of the molar value. Converted amounts (≈) assume the structure as drawn. Some results are limits rather than exact numbers.

The nature of data set [1]: Half-life in female BALB/c mouse at 1 mg/kg, iv measured after 24 hrs by LC-MS/MS analysis. Type of data set: ADME, organism-based. To be noted: in vivo.
Data set [2] can be described thus: Inhibition of 6His-tagged wildtype KRAS (1 to 169 residues)/GST-tagged GMPPNP-bound BRAF RBD (155 to 229 reisudes)/Cyclophilin A (unknown origin) tri-complex protein-protein interaction incubated for 3 hrs by TR-FERT based disruption assay. On the set-up: species or system Homo sapiens.
Data set [3] can be described thus: Kinetic solubility of compound in PBS at pH 5.0 measured after 5 hrs by UV analysis. It counts as physicochemical. Conditions: read-out: Kinetic_solubility.
A short description of data set [4]: Inhibition of 6His-tagged KRAS G12D mutant(1 to 169 residues)/GST-tagged GMPPNP-bound BRAF RBD (155 to 229 reisudes)/Cyclophilin A (unknown origin) tri-complex protein-protein interaction incubated for 3 hrs by TR-FERT based disruption assay. On the set-up: species or system Homo sapiens.
For data set [5], the system named is A-375. The experiment in a line: Cytotoxicity against human A-375 cells assessed as reduction in cell viability incubated for 120 hrs by CellTiter-Glo luminescence assay. Conditions: A-375, 120 h. Type of data set: functional, cell-based.
Data set [6] has as its target Peptidyl-prolyl cis-trans isomerase A (Homo sapiens, UniProt P62937). The experiment in a line: Binding affinity to Avi-tagged Cyclophilin A (unknown origin) assessed as dissociation constant by SPR analysis.
Data set [7] is described as follows: Lipophilicity, logD of compound at pH 7.4 by Agilent 1290 II uPLC analysis. It counts as physicochemical. To be noted: buffer.
The nature of data set [8]: Inhibition of 6His-tagged KRAS G12C mutant(1 to 169 residues)/GST-tagged GMPPNP-bound BRAF RBD (155 to 229 reisudes)/Cyclophilin A (unknown origin) tri-complex protein-protein interaction incubated for 3 hrs by TR-FERT based disruption assay. On the set-up: species or system Homo sapiens.
The nature of data set [9]: Apparent permeability across apical to basolateral side in human Caco-2 cells at 5 uM incubated for 2 hrs by LC-MS/MS analysis. Type of data set: ADME, cell-based.
Data set [10] concerns CAPAN-1. The experiment in a line: Cytotoxicity against human CAPAN-1 cells harboring KRAS G12V mutant cultured as 2D cells assessed as reduction in cell viability incubated for 120 hrs by CellTiter-Glo luminescence assay. It counts as functional, cell-based. Conditions: CAPAN-1, 120 h.
Data set [11] relates to NCI-H358. In words: Cytotoxicity against human NCI-H358 cells harboring KRAS G12C mutant cultured as 2D cells assessed as reduction in cell viability incubated for 120 hrs by CellTiter-Glo luminescence assay. Conditions: NCI-H358, 120 h. It counts as functional, cell-based.
Data set [12] in a line: Kinetic solubility of compound in PBS at pH 7.4 measured after 5 hrs by UV analysis. Type of data set: physicochemical. To be noted: read-out: Kinetic_solubility.
Data set [13] in a line: Clearance in female BALB/c mouse at 1 mg/kg, iv measured after 24 hrs by LC-MS/MS analysis. Type of data set: ADME, organism-based. To be noted: in vivo.
Data set [14] in a line: Inhibition of ERK1/2 phosphorylation in human ASPC1 cells harboring KRAS G12D mutant incubated for 4 hrs by AlphaLISA assay. It counts as cell-based. To be noted: ASPC1, 4 h.
For data set [15], the system named is ASPC1. In words: Cytotoxicity against human ASPC1 cells harboring KRAS G12D mutant cultured as 2D cells assessed as reduction in cell viability incubated for 120 hrs by CellTiter-Glo luminescence assay. Type of data set: functional, cell-based. Conditions: ASPC1, 120 h.
In data set [16] the test system is NCI-H1975. The experiment in a line: Cytotoxicity against human NCI-H1975 cells harboring wildtype KRAS cultured as 2D cells assessed as reduction in cell viability incubated for 120 hrs by CellTiter-Glo luminescence assay. It counts as functional, cell-based. Conditions: NCI-H1975, 120 h.
Data set [17] is described as follows: Metabolic stability in mouse liver microsomes assessed as half-life at 2 uM measured upto 60 mins in presence of NADPH by LC-MS/MS analysis. It counts as ADME, Microsome.
The nature of data set [18]: Inhibition of ERK1/2 phosphorylation in human NCI-H358 cells harboring KRAS G12C mutant incubated for 4 hrs by AlphaLISA assay. Type of data set: cell-based. Conditions: NCI-H358, 4 h.
The nature of data set [19]: Oral bioavailability in female BALB/c mouse at 10 mg/kg measured after 24 hrs by LC-MS/MS analysis. Type of data set: ADME, organism-based. Conditions: in vivo.
Data set [20] in a line: Inhibition of 6His-tagged KRAS G12V mutant(1 to 169 residues)/GST-tagged GMPPNP-bound BRAF RBD (155 to 229 reisudes)/Cyclophilin A (unknown origin) tri-complex protein-protein interaction incubated for 3 hrs by TR-FERT based disruption assay. Set-up: species or system Homo sapiens.
A short description of data set [21]: Efflux ratio of apparent permeability in human Caco-2 cells at 5 uM incubated for 2 hrs by LC-MS/MS analysis. It counts as ADME, cell-based.
Data set [22] can be described thus: Inhibition of ERK1/2 phosphorylation in human CAPAN-1 cells harboring KRAS G12V mutant incubated for 4 hrs by AlphaLISA assay. It counts as cell-based. To be noted: CAPAN-1, 4 h.
The nature of data set [23]: In vivo inhibition of MAPK signaling pathway in female BALB/c nude mouse xenografted with human NCI-H441 cells harboring wildtype KRAS/KRAS G12V mutant assessed as decrease in DUSP6 mRNA expression in tumor at 200 mg/kg, po administered as single dose and measured after 2 hrs by qPCR analysis relative to control. Type of data set: functional.
Data set [24] in a line: In vivo inhibition of MAPK signaling pathway in female BALB/c nude mouse xenografted with human NCI-H441 cells harboring wildtype KRAS/KRAS G12V mutant assessed as decrease in DUSP6 mRNA expression in tumor at 100 mg/kg, po administered as single dose and measured after 2 hrs by qPCR analysis relative to control. It counts as functional.
A short description of data set [25]: Binding affinity to Cyclophilin A/Avi-tagged KRAS G12V mutant (1 to 169 residues) (unknown origin) assessed as dissociation constant by SPR analysis. On the set-up: species or system Homo sapiens.
Data set [26] can be described thus: Inhibition of 6His-tagged KRAS G12R mutant(1 to 169 residues)/GST-tagged GMPPNP-bound BRAF RBD (155 to 229 reisudes)/Cyclophilin A (unknown origin) tri-complex protein-protein interaction incubated for 3 hrs by TR-FERT based disruption assay. On the set-up: species or system Homo sapiens.
The nature of data set [27]: Inhibition of 6His-tagged KRAS G61H mutant(1 to 169 residues)/GST-tagged GMPPNP-bound BRAF RBD (155 to 229 reisudes)/Cyclophilin A (unknown origin) tri-complex protein-protein interaction incubated for 3 hrs by TR-FERT based disruption assay. Set-up: species or system Homo sapiens.
A short description of data set [28]: Inhibition of 6His-tagged NRAS G61K mutant(1 to 169 residues)/GST-tagged GMPPNP-bound BRAF RBD (155 to 229 reisudes)/Cyclophilin A (unknown origin) tri-complex protein-protein interaction incubated for 3 hrs by TR-FERT based disruption assay. Set-up: species or system Homo sapiens.
A short description of data set [29]: Binding affinity to Cyclophilin A/Avi-tagged KRAS G12C mutant (1 to 169 residues) (unknown origin) assessed as dissociation constant by SPR analysis. Set-up: species or system Homo sapiens.
A short description of data set [30]: Inhibition of 6His-tagged wildtype NRAS (1 to 169 residues)/GST-tagged GMPPNP-bound BRAF RBD (155 to 229 reisudes)/Cyclophilin A (unknown origin) tri-complex protein-protein interaction incubated for 3 hrs by TR-FERT based disruption assay. Set-up: species or system Homo sapiens.
The nature of data set [31]: Inhibition of 6His-tagged wildtype HRAS (1 to 169 residues)/GST-tagged GMPPNP-bound BRAF RBD (155 to 229 reisudes)/Cyclophilin A (unknown origin) tri-complex protein-protein interaction incubated for 3 hrs by TR-FERT based disruption assay. On the set-up: species or system Homo sapiens.
Data set [32] is described as follows: Binding affinity to Cyclophilin A/Avi-tagged KRAS G12D mutant (1 to 169 residues) (unknown origin) assessed as dissociation constant by SPR analysis. Set-up: species or system Homo sapiens.

Chain of Peptidyl-prolyl cis-trans isomerase A (P62937 whole entry): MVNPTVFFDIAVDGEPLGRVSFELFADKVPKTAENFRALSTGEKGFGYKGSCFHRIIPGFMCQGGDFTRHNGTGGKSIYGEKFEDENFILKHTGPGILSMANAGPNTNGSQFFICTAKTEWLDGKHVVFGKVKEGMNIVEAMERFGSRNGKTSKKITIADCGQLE

Molecule `CCn1c(-c2cccnc2[C@H](C)OC)c2c3cc(ccc31)-c1csc(n1)C[C@H](NC(=O)[C@H]1C[C@@H]1C)C(=O)N1CCC[C@H](N1)C(=O)OCC(C)(C)C2` had a half-life in data set [1] of 54 min. For the same molecule, the pIC50 in data set [2] was 6.46; in [4], 6.03; in [8] it was 6.93; in data set [20], 6.78. Also, the solubility kinetic at 5 h in data set [3] is below 2 µM; in data set [12], 3 µM (≈ 2.14 µg/mL). Moreover, the negative logarithm of the EC50 (pEC50) is 5.08 in data set [5]; 6.89 in [10]; 7.08 in [11]; 6.09 in data set [14]; 6.63 in data set [15]; 7.16 in data set [16]. Besides, the negative-log EC50 (pEC50) in data set [18] was 7.17; in data set [22], 7.60. The pKd in [6] is 5.76. The molecule also had a logD in data set [7] of 4.7. In addition, the Papp A→B at 2 h, 5 µM in data set [9] was 10.7 ×10⁻⁶ cm/s. Besides, the clearance in data set [13] is 10 mL/min/kg. The half-life at 2 µM in data set [17] is 53 min. In data set [19], this molecule registered a bioavailability of 75%. In addition, the efflux ratio at 2 h, 5 µM in data set [21] stood at 1.
On to `CCn1c(-c2cccnc2[C@H](C)OC)c2c3cc(ccc31)-c1csc(n1)C[C@H](NC(=O)[C@H](C(C)C)N(C)C(=O)N1CC(OC)C1)C(=O)N1CCC[C@H](N1)C(=O)OCC(C)(C)C2`, for which, in [1], the half-life was 90 min. The pIC50 in [2] is 6.70; in [4] it was 5.94; in data set [8], 7.11; in [15], 7.12. The pEC50 in [5] was below 5.00; in [10] it was 7.80; in data set [11], 8.15; in data set [14] it was 7.21; in data set [16], 7.66; in data set [18] it was 8.30. The molecule further showed a negative logarithm of the EC50 (pEC50) in data set [22] of 8.52. Moreover, in data set [6], the negative-log Kd (pKd) was 6.55. In [7], this molecule returned a logD of 4.8. In [9], the apparent permeability from apical to basolateral (Papp A→B) at 2 h, 5 µM worked out at 0.6 ×10⁻⁶ cm/s. Moreover, in data set [23], the inhibition in vivo at 200 mg/kg worked out at 94%. Moreover, in data set [12], the solubility kinetic at 5 h is 12 µM (≈ 10.3 µg/mL). Also, in [24], the inhibition in vivo at 100 mg/kg worked out at 87%. The molecule further gave a clearance in [13] of 33.3 mL/min/kg. Also, the half-life at 2 µM in data set [17] was found to be 19 min. Besides, the bioavailability in data set [19] was determined as 17%. Further, the efflux ratio at 2 h, 5 µM in [21] is 9.6.
Take `CCn1c(-c2cccnc2[C@H](C)OC)c2c3cc(ccc31)-c1cccc(c1)C[C@H](NC(=O)[C@H](C(C)C)N(C)C(=O)[C@H]1CCN(C(C)=O)C1)C(=O)N1CCC[C@H](N1)C(=O)OCC(C)(C)C2`: the negative-log Kd (pKd) is 5.23 in data set [25], 6.05 in data set [6], 5.69 in data set [29] and 5.45 in [32]. For the same molecule, the negative-log IC50 (pIC50) in data set [2] was 5.29; in data set [4] it was 4.89; in data set [26], 5.08; in data set [8], 5.80; in data set [27] it was 5.89; in data set [28], 5.46. Besides, the results for the negative logarithm of the IC50 (pIC50) in data set [30], in data set [31] and in data set [20] were 5.49, 5.46 and 5.36, respectively. Moreover, the pEC50 in data set [10] is 6.02; in data set [11], 5.96; in data set [15], 5.73; in [16] it was 5.95.

Values taken from ChEMBL document CHEMBL6115029, “Discovery of Daraxonrasib (RMC-6236), a Potent and Orally Bioavailable RAS(ON) Multi-selective, Noncovalent Tri-complex Inhibitor for the Treatment of Patients with Multiple RAS-Addicted Cancers” (J Med Chem, 2025).
